# In patent EP0624315B1, “Diaryl(pyridinio and isoquinolinio) boron fungicidal agents” (AMERICAN CYANAMID COMPANY, priority 1993, dated 1994):
# Assays:
# [1] = system: Spodoptera eridania 3rd instar larvae, southern army-worm; assay: Insecticide evaluation, southern armyworm leaf dip; format: in vivo; conditions: 1000 ppm, 5 days
# Procedure: (§1) The following tests show the efficacy of the compounds as insecticides and acaricides. The evaluations are conducted with solutions of test compounds dissolved or dispersed in 50/50 acetone/water mixtures. The test compound is technical material dissolved or dispersed in said acetone/water mixtures in sufficient amounts to provide the concentrations set forth in Table I below. All concentrations reported herein are in terms of active ingredient. All tests are conducted in a laboratory maintained at about 27 °C. The rating system employed is as follows:
# A sieva lima bean leaf expanded to 7 to 8 cm in length is dipped in the test suspension with agitation for 3 seconds and placed in a hood to dry. The leaf is then placed in a 100x10 mm petri dish containing a damp filter paper on the bottom and 10 3rd instar caterpillars. The dish is maintained for 5 days before observations are made of mortality, reduced feeding or any interference with normal moulting.
# Plasmopara viticola = assay: In vivo fungicidal evaluation, Grape Downy Mildew; conditions: 200 ppm, host plants sprayed, dried, then inoculated; also: ranges in brackets are in %
# Venturia inaequalis = assay: In vivo fungicidal evaluation, Apple Scab; conditions: 200 ppm, host plants sprayed, dried, then inoculated; also: ranges in brackets are in %
# [2] = system: Fusarium oxysporum f. sp. cucumerinum (Fusoxc); assay: In vitro fungicidal evaluation, mycelial growth inhibition in nutrient broth; format: cell-based; conditions: 25 ppm, 3-4 days at 21°C, rated visually; also: ranges in brackets are in %
# Procedure: (§2) Test compounds are dissolved or suspended in acetone and dispersed into cell well plates containing a suspension of ground fungal mycelia in a nutrient broth. Assay plates are incubated for 3-4 days at 21°C. Growth inhibition is measured visually and is rated using the following scale:
# (§3) Untreated controls, solvent blanks and reference standards are included in each test.
# (§4) Assay fungi include the plant pathogens, Pythium ultimum (Pythul); Rhizoctonia solani (Rhizso); Fusarium oxysporum f. sp. cucumerinum (Fusoxc); and Pseudocercosporella herpotrichoides (Psdche).
# (§5) When more than one test is run, the data are averaged. The compouds evaluated are reported by compound number given in Example 5.
# Pythium ultimum (Pythul) = assay: as above; format: cell-based; conditions: 25 ppm, 3-4 days at 21°C, rated visually; also: ranges in brackets are in %
# Procedure: as §2, §3, §4, §5
# [3] = system: Rhizoctonia solani (Rhizso); assay: as above; format: cell-based; conditions: 25 ppm, 3-4 days at 21°C, rated visually; also: ranges in brackets are in %
# Procedure: as §2, §3, §4, §5
# [4] = system: Pseudocercosporella herpotrichoides (Psdche); assay: as above; format: cell-based; conditions: 25 ppm, 3-4 days at 21°C, rated visually; also: ranges in brackets are in %
# Procedure: as §2, §3, §4, §5
# [5] = system: Puccinia recondita f. sp. tritici; assay: In vivo fungicidal evaluation, Wheat Leaf Rust; conditions: 200 ppm, host plants sprayed, dried, then inoculated; also: ranges in brackets are in %
# Cercospora beticola = assay: In vivo fungicidal evaluation, Sugar Beet Cercospora; conditions: 200 ppm, host plants sprayed, dried, then inoculated; also: ranges in brackets are in %
# [6] = system: Tetranychus urticae (OP-resistant strain), 2-spotted spider mite; assay: Acaricide evaluation, 2-spotted spider mite plant dip; format: in vivo; conditions: 300 ppm, 2 days, adult kill
# Procedure: as §1
# Sieva lima bean plants with primary leaves expaned to 7 to 8 cm are selected and cut back to one plant per pot. A small piece is cut from a leaf taken from the main colony and placed on each leaf of the test plants. This is done about 2 hours before treatment to allow the mites to move over to the test plant and to lay eggs. The size of the cut piece is varied to obtain about 100 mites per leaf. At the time of the treatment, the piece of leaf used to transfer the mites is removed and discarded. The mite-infested plants are dipped in the test formulation for 3 seconds with agitation and set in the hood to dry. Plants are kept for 2 days before estimates of adult kill are made.
# [7] = system: Diabrotica undecimpunctata howardi, 3rd instar southern corn rootworm; assay: Insecticide evaluation, southern corn rootworm soil test; format: in vivo; design: key: 0 = no effect; 1 = 10-25% kill; 2 = 26-35% kill; 3 = 36-45% kill; 4 = 46-55% kill; 5 = 56-65% kill; 6 = 66-75% kill; 7 = 76-85% kill; 8 = 86-99% kill; 9 = 100% kill; - = No evaluation; conditions: 50 kg/ha (1.25 mg active ingredient per jar), 6 days
# Procedure: as §1
# One cc of fine talc is placed in a 30 mL wide-mouth screw-top glass jar. One mL of the appropriate acetone test solution is pipetted onto the talc so as to provide 1.25 mg of active ingredient per jar. The jars are set under a gentle air flow until the acetone is evaporated. The dried talc is loosened, 1 cc of millet seed is added to serve as food for the insects and 25 mL of moist soil is added to each jar. The jars are capped and the contents thoroughly mixed on a Vortex Mixer. Following this, ten 3rd instar rootworms are added to each jar and the jars are loosely capped to allow air exchange for the larvae. The treatments are held for 6 days before mortality counts are made. Missing larvae are presumed dead, since they decompose rapidly and can not be found. The concentration used in this test corresponds to approximately 50 kg/ha.
# Botrytis cinerea = assay: In vivo fungicidal evaluation, Pepper Botrytis; conditions: 200 ppm, host plants sprayed, dried, then inoculated; also: ranges in brackets are in %
# Alternaria solani = assay: In vivo fungicidal evaluation, Tomato Early Blight; conditions: 200 ppm, host plants sprayed, dried, then inoculated; also: ranges in brackets are in %
# [8] = system: Erysiphe graminis f. sp. tritici; assay: In vivo fungicidal evaluation, Wheat Powdery Mildew; conditions: 200 ppm, host plants sprayed, dried, then inoculated; also: ranges in brackets are in %
# Pyricularia oryzae = format: in vivo; conditions: 200 ppm, host plants sprayed, dried, then inoculated
Molecule,Southern Armyworm kill rating [1],GDM (Grape Downy Mildew) disease control rating (Plasmopara viticola),AS (Apple Scab) disease control rating (Venturia inaequalis),FUSOXC growth inhibition rating [2],PHTHUL growth inhibition rating (Pythium ultimum (Pythul)),RHIZSO growth inhibition rating [3],PSDCHE growth inhibition rating [4],WLR (Wheat Leaf Rust) disease control rating [5],SBC (Sugar Beet Cercospora) disease control rating (Cercospora beticola),OP. Res. Mites kill rating [6],Southern Corn Rootworm kill rating [7],PB (Pepper Botrytis) disease control rating (Botrytis cinerea),TEB (Tomato Early Blight) disease control rating (Alternaria solani),WPM (Wheat Powdery Mildew) disease control rating [8],RB (Rice Blast) disease control rating (Pyricularia oryzae)
"C[B-](c1ccccc1)(c1ccccc1)[n+]1cccc(Br)c1 [Compound 18, (3-Bromopyridinio)methyldiphenylboron]",9 (9 = 100% kill),4 (45 - 59),0 (0),7 (90 - 99),7 (90 - 99),7 (90 - 99),9 (100),0 (0),6 (75 - 89),7 (7 = 76-85% kill),0,8 (96 - 99),4 (45 - 59),0 (0),5 (60 - 74)
(3-Ethyl-4-methylpyridinio)methyldiphenylboron [Compound 5],9 (9 = 100% kill),9 (100),0 (0),9 (100),9 (100),9 (100),9 (100),8 (96 - 99),0 (0),8 (8 = 86-99% kill),9 (9 = 100% kill),0 (0),8 (96 - 99),9 (100),0 (0)
Bis(p-fluorophenyl)(isoquinolinio)methylboron [Compound 13],,9 (100),7 (90 - 95),9 (100),9 (100),9 (100),9 (100),7 (90 - 95),8 (96 - 99),,,9 (100),8 (96 - 99),8 (96 - 99),7 (90 - 95)
Bis(p-fluorophenyl)methyl(5-nitroisoquinolinio)boron [Compound 15],,0 (0),9 (100),9 (100),9 (100),9 (100),9 (100),0 (0),7 (90 - 95),,,9 (100),4 (45 - 59),0 (0),3 (30 - 44)
Butoxy(3-methylpyridinio)diphenylboron [Compound 10],,3 (30 - 44),0 (0),9 (100),9 (100),9 (100),7 (90 - 99),0 (0),0 (0),,,6 (75 - 89),0 (0),0 (0),0 (0)
Butoxy(4-isopropylpyridinio)diphenylboron [Compound 11],,0 (0),8 (96 - 99),9 (100),9 (100),9 (100),7 (90 - 99),0 (0),0 (0),,,4 (45 - 59),0 (0),0 (0),0 (0)
Butoxy(4-methylpyridinio)diphenylboron [Compound 9],,0 (0),0 (0),9 (100),9 (100),0 (0),0 (0),0 (0),0 (0),,,6 (75 - 89),0 (0),0 (0),0 (0)
Chloro(isoquinolinio)di-p-tolylboron [Compound 12],,0 (0),0 (0),7 (90 - 99),7 (90 - 99),7 (90 - 99),5 (60 - 89),0 (0),7 (90 - 95),,,0 (0),0 (0),0 (0),0 (0)
Hydroxy(3-butylpyridinio)diphenylboron [Compound 7],,0 (0),6 (75 - 89),9 (100),9 (100),9 (100),0 (0),5 (60 - 74),0 (0),,,0 (0),0 (0),5 (60 - 74),6 (75 - 89)
Hydroxy(4-isopropylpyridinio)diphenylboron [Compound 8],,4 (45 - 59),0 (0),9 (100),9 (100),7 (90 - 99),0 (0),0 (0),0 (0),,,0 (0),0 (0),0 (0),6 (75 - 89)
